Measured values reported in patent US20250230193A1, “CYCLIC COMPOUND HAVING SELECTIVE KRAS INHIBITORY EFFECT ON HRAS AND NRAS” (CHUGAI SEIYAKU KABUSHIKI KAISHA, priority 2022, published 2025).
*1 amine or outer side, *2 acyl side, *3 side chain or, on linkers, in order; H or OH if unused. Where a SMILES comes first, the peptide text is derived from it. Bridges are numbered along the chain shown (N, C = ends). [ ]: non-standard residue; d: D form. The star is where a group is joined. hPhe(3,5-F2-4-CF3) = N[C@@H](CCc1cc(F)c(C(F)(F)F)c(F)c1)C(=O)O; hPhe(3-Cl-4-CF3) = N[C@@H](CCc1ccc(C(F)(F)F)c(Cl)c1)C(=O)O; X32 = COCCN([C@@H](Cc1ccc(C(F)(F)F)cc1)C(=O)[*:2])[*:1]; NPrPhe(4-CF3) = CCCN[C@@H](Cc1ccc(C(F)(F)F)cc1)C(=O)O; NMeGly(cPent) = CN[C@H](C(=O)O)C1CCCC1; NMeD = CN[C@@H](CC(=O)O)C(=O)O; NMeL = CN[C@@H](CC(C)C)C(=O)O; αMeV = CC(C)[C@](C)(N)C(=O)O; Morpholide = C1CN(*)CCO1; Ac5c = NC1(C(=O)O)CCCC1; Sar = CNCC(=O)O

Columns and labels:
[1] = biological target: GDP-bound NRAS wild-type protein (Homo sapiens, UniProt P01111); experiment: Binding to NRAS by surface plasmon resonance (SPR), Single Cycle Kinetics
Sequence of GDP-bound NRAS wild-type protein (P01111 whole entry): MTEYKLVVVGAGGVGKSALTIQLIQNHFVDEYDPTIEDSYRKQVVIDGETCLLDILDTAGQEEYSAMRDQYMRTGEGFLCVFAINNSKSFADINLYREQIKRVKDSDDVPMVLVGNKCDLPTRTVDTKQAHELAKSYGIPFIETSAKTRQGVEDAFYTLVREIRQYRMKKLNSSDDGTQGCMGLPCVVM

[2] = biological target: GDP-bound HRAS wild-type protein (Homo sapiens, UniProt P01112); experiment: Binding to HRAS by surface plasmon resonance (SPR), Single Cycle Kinetics
Sequence of GDP-bound HRAS wild-type protein (P01112 whole entry): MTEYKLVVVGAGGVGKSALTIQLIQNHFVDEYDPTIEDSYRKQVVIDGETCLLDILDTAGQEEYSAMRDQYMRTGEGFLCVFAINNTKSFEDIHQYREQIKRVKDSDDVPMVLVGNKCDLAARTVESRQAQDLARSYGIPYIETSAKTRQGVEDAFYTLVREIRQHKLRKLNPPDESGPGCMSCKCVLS

[3] = KD ratio, GDP-bound NRAS wild-type vs GDP-bound KRAS wild-type, SPR
[4] = KD ratio, GDP-bound HRAS wild-type vs GDP-bound KRAS wild-type, SPR
[5] = KD ratio NRAS/KRAS, class symbols
[6] = KD ratio HRAS/KRAS, class symbols

## CCCN1C(=O)CN(C)C(=O)CN(C)C(=O)[C@H]([C@@H](C)CC)NC(=O)[C@H](CC(C)C)N(C)C(=O)C[C@@H](C(=O)N(C)C)N(C)C(=O)[C@H](C2CCCC2)N(C)C(=O)[C@](C)(C(C)C)NC(=O)[C@@H]2CCCN2C(=O)[C@H](CCc2cc(F)c(C(F)(F)F)c(F)c2)NC(=O)CN(C)C(=O)[C@@H]1Cc1ccc(C(F)(F)F)cc1 [PP0735] ([NMeL]I[Sar][Sar][NPrPhe(4-CF3)][Sar][hPhe(3,5-F2-4-CF3)]P[αMeV][NMeGly(cPent)][NMeD]-NMe2; lactam N-11)
[1]; KD ratio NRAS/KRAS, SPR
  NRAS/KRAS (ratio of KD value with respect to GDP-bound NRAS wild-type protein to KD value with respect to KRAS): B (a compound having 3 or more and less than 10 is denoted as B)
[2]; KD ratio HRAS/KRAS, SPR
  HRAS/KRAS (ratio of KD value with respect to GDP-bound HRAS wild-type protein to KD value with respect to KRAS): C (A compound having a KD ratio of 0.1 or more and less than 3 is denoted as C)

## CCO[C@@H]1C[C@H]2C(=O)NC3(CCCC3)C(=O)N(C)[C@@H](C3CCCC3)C(=O)N(C)[C@H](C(=O)N3CCOCC3)CC(=O)N(C)[C@@H](CC(C)C)C(=O)N[C@@H]([C@@H](C)CC)C(=O)N(C)CC(=O)N(C)[C@H]3CCCCCN(C3=O)[C@@H](Cc3ccc(F)cc3)C(=O)N(C)CC(=O)N[C@@H](CCc3ccc(C(F)(F)F)c(Cl)c3)C(=O)N2C1 [PP0965]
[1]; [3]
  NRAS/KRAS (ratio of KD value with respect to NRAS to KD value with respect to KRAS): B (a compound having 3 or more and less than 10 is denoted as B)
[2]; [4]
  HRAS/KRAS (ratio of KD value with respect to HRAS to KD value with respect to KRAS): B (a compound having 3 or more and less than 10 is denoted as B)

## CC[C@H](C)[C@@H]1NC(=O)[C@H](CC(C)C)N(C)C(=O)C[C@@H](C(=O)N2CCOCC2)N(C)C(=O)[C@H](C2CCCC2)N(C)C(=O)C2(CCCC2)NC(=O)[C@@H]2CCCN2C(=O)[C@H](CCc2ccc(C(F)(F)F)c(Cl)c2)NC(=O)CN(C)C(=O)[C@H](Cc2ccc(C(F)(F)F)cc2)N(CCOC)C(=O)CN(C)C(=O)CN(C)C1=O [PP0132] ([NMeL]I[Sar][Sar][X32][Sar][hPhe(3-Cl-4-CF3)]P[Ac5c][NMeGly(cPent)][NMeD]-Morpholide; lactam N-11)
[1]; KD ratio NRAS/KRAS, SPR
  NRAS/KRAS (ratio of KD for GDP-bound NRAS wild-type to KD for KRAS): C (A compound having a KD ratio of 0.1 or more and less than 3 is denoted as C)
[2]; KD ratio HRAS/KRAS, SPR
  HRAS/KRAS (ratio of KD for GDP-bound HRAS wild-type to KD for KRAS): C (A compound having a KD ratio of 0.1 or more and less than 3 is denoted as C)

## CCC[C@H]1C(=O)N[C@@H](CC(C)C)C(=O)N(CCOC)CC(=O)N(C)[C@H]2C/C=C\CCN(C2=O)[C@@H](Cc2ccc(C)cc2)C(=O)N(C)CC(=O)N[C@@H](CCc2ccc(C(F)(F)F)c(OC)c2)C(=O)N2C[C@H](OCC)C[C@H]2C(=O)NC2(CCC2)C(=O)N(C)[C@@H](C2CCCC2)C(=O)N(C)[C@H](C(=O)N(C)C)CC(=O)N1C [PP2542]
[1]; [5]
  NRAS/KRAS (ratio of KD value with respect to GDP-bound NRAS wild-type protein to KD value with respect to KRAS): B (a compound having 3 or more and less than 10 is denoted as B)
[2]; [6]
  HRAS/KRAS (ratio of KD value with respect to GDP-bound HRAS wild-type protein to KD value with respect to KRAS): B (a compound having 3 or more and less than 10 is denoted as B)

## CCC[C@H]1C(=O)N[C@@H]([C@@H](C)CC)C(=O)N(C)CC(=O)N(C)[C@H]2C/C=C\CCN(C2=O)[C@@H](CC2CCC(F)(F)CC2)C(=O)N(C)CC(=O)N[C@@H](CCc2ccc(C(F)(F)F)c(Cl)c2)C(=O)N2C[C@H](OCC)C[C@H]2C(=O)NC2(CC(C)(C)C2)C(=O)N(C)[C@@H](C(CC)CC)C(=O)N(C)[C@H](C(=O)N(C)C)CC(=O)N1C [PP2498]
[1]; SPR, GDP-bound NRAS wild-type vs GDP-bound KRAS wild-type
  NRAS/KRAS (ratio of KD value with respect to NRAS to KD value with respect to KRAS): A (a compound having 10 or more and less than 20 is denoted as A)
[2]; SPR, GDP-bound HRAS wild-type vs GDP-bound KRAS wild-type
  HRAS/KRAS (ratio of KD value with respect to HRAS to KD value with respect to KRAS): A (a compound having 10 or more and less than 20 is denoted as A)

## CCO[C@@H]1C[C@H]2C(=O)NC3(CC(C)(C)C3)C(=O)N(C)[C@@H](C3CCCC3)C(=O)N(C)[C@H](C(=O)N(C)CC)CC(=O)N(C)[C@@H](CC)C(=O)N[C@@H]([C@@H](C)CC)C(=O)N(C)CC(=O)N(C)[C@H]3C/C=C\CCN(C3=O)[C@@H](Cc3ccc(C)cc3)C(=O)N(C)CC(=O)N[C@@H](CCc3cc(F)c(C(F)(F)F)c(F)c3)C(=O)N2C1 [PP1886]
[1]; [3]
  NRAS/KRAS (ratio of KD value for NRAS to KD value for KRAS): A (a compound having 10 or more and less than 20 is denoted as A)
[2]; [4]
  HRAS/KRAS (ratio of KD value for HRAS to KD value for KRAS): B (a compound having 3 or more and less than 10 is denoted as B)

## CCC[C@H]1C(=O)N[C@@H]([C@@H](C)CC)C(=O)N(C)CC(=O)N(C)[C@H]2C/C=C\CCN(C2=O)[C@@H](Cc2ccc(C(F)(F)F)cc2)C(=O)N(C)CC(=O)N[C@@H](CCc2ccc(CC)c(Cl)c2)C(=O)N2C[C@H](OCC)C[C@H]2C(=O)NC2(CC(C)(C)C2)C(=O)N(C)[C@@H](C(CC)CC)C(=O)N(C)[C@H](C(=O)N(C)C)CC(=O)N1C [PP2777]
[1]; [5]
  NRAS/KRAS (ratio of KD value with respect to GDP-bound NRAS wild-type protein to KD value with respect to KRAS): AA (a compound having 20 or more is denoted as AA)
[2]; [6]
  HRAS/KRAS (ratio of KD value with respect to GDP-bound HRAS wild-type protein to KD value with respect to KRAS): A (a compound having 10 or more and less than 20 is denoted as A)
